Results reported in patent US11987586B1 (TAKEDA PHARMACEUTICAL COMPANY LIMITED, priority 2022, dated 2024).

Target: T1, human OX2 receptor (Homo sapiens, UniProt O43614)
T1 construct: expressed in transfected cells
T1 sequence (O43614 1-444): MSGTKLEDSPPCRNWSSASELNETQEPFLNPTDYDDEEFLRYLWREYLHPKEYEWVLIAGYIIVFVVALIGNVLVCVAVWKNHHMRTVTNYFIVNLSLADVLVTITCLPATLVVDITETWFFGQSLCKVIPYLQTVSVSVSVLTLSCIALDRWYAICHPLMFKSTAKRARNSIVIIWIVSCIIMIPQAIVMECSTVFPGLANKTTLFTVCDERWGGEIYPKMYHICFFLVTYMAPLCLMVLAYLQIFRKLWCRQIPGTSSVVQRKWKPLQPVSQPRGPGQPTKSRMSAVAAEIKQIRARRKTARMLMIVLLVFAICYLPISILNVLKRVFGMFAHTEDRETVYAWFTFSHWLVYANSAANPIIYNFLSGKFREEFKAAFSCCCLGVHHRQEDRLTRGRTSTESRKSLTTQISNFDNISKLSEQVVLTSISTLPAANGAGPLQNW
Test: Measurement of orexin type 2 receptor agonist activity (calcium fluorescence, Fluo-4, FDSS)
Assay type: cell-based
Details: 3 uM test compound; CHO cells expressing human OX2 receptor; DMSO = 0%, 10 nM orexin A (human) = 100%
Description: In order to obtain cell clones that stably express human orexin type 2 receptor, human orexin type 2 (residues 1-444, NCBI Reference Sequence: AK314279) was constructed in a pcDNA3.1 (+) vector (Invitrogen) to express in mammalian cells. This plasmid DNA was transfected into CHO-K1 cells by electroporation, and stable clones were obtained by limiting dilution using resistance to G418 as a selection marker.
CHO cells in which human OX2 receptor was forcibly expressed were seeded at 10,000 cells/well into a 384-well black transparent bottom plate (BD falcon), and were incubated at 37° C., 5% CO2 for 1 day after incubation at room temperature for 30 minutes. After removing the cell plate medium, assay buffer containing calcium indicator A (HBSS (Thermo Fisher Scientific), 20 mM HEPES (Thermo Fisher Scientific), 0.1% BSA (Sigma-Aldrich), 2.5 μg/mL Fluo-4 AM (Dojin Kagaku), 0.08% Pluronic F127 (Dojin Kagaku), 1.25 mM probenecid (Dojin Kagaku)) was added at 30 μL/well. After incubation in a 5% CO2 incubator at 37° C. for 30 minutes, it was incubated at room temperature for another 30 minutes. Add 10 μL/well of the test compound diluted with assay buffer B (HBSS, 20 mM HEPES, 0.1% BSA), and use FDSS μCELL (Hamamatsu Photonics) to measure the fluorescence value every 1 second for 1 minute, and then every 2 seconds for 1 minute. It was measured for 1 minute and 40 seconds. The amount of fluorescence value when DMSO is added instead of the test compound is defined as 0%, and the amount of fluorescence value when orexin A (human) (Peptide Institute) with a final concentration of 10 nM is added is defined as 100%. The activity (%) of the test compound was calculated.

SMILES	OX2R agonist activity (3 uM, %)
Cc1c(-c2noc3cccc(-c4c(F)cccc4F)c23)c(=O)n2n1CC(NS(C)(=O)=O)C2 (single isomer, unassigned) [Example 340, N-{(2R*)-6-[4-(2,6-difluorophenyl)-1,2-benzoxazol-3-yl]-7-methyl-5-oxo-2,3-dihydro-1H,5H-pyrazolo[1,2-a]pyrazol-2-yl}methanesulfonamide]	92%
CCS(=O)(=O)N[C@@H]1CN2C(=O)N(c3noc4cccc(-c5c(F)cccc5F)c34)C[C@@H]2C1(C)C [Example 6, N-{(6S,7aS)-2-[4-(2,6-difluorophenyl)-1,2-benzoxazol-3-yl]-7,7-dimethyl-3-oxohexahydro-1H-pyrrolo[1,2-c]imidazol-6-yl}ethanesulfonamide]	96%
CCS(=O)(=O)N[C@@H]1CN2C(=O)N(c3noc4ccc(F)c(-c5c(F)cccc5F)c34)C[C@@H]2C1(F)F [Example 7, N-{(6R,7aR)-2-[4-(2,6-difluorophenyl)-5-fluoro-1,2-benzoxazol-3-yl]-7,7-difluoro-3-oxohexahydro-1H-pyrrolo[1,2-c]imidazol-6-yl}ethanesulfonamide]	105%
CCS(=O)(=O)N[C@@H]1CN2C(=O)N(c3noc4cc(Cl)cc(-c5c(F)cc(F)cc5F)c34)C[C@@H]2C1(F)F [Example 9, N-{(6R,7aR)-2-[6-chloro-4-(2,4,6-trifluorophenyl)-1,2-benzoxazol-3-yl]-7,7-difluoro-3-oxohexahydro-1H-pyrrolo[1,2-c]imidazol-6-yl}ethanesulfonamide]	92%
CNS(=O)(=O)N[C@@H]1CN2C(=O)N(c3noc4cccc(-c5c(F)cccc5F)c34)C[C@@H]2C1(F)F [Example 17, N-{(6R,7aR)-2-[4-(2,6-difluorophenyl)-1,2-benzoxazol-3-yl]-7,7-difluoro-3-oxohexahydro-1H-pyrrolo[1,2-c]imidazol-6-yl}-N′-methylsulfuric diamide]	104%
COCS(=O)(=O)N[C@H]1C[C@H]2CN(c3noc4cccc(-c5c(F)cccc5F)c34)C(=O)N2C1 [Example 20, N-{(6S,7aS)-2-[4-(2,6-difluorophenyl)-1,2-benzoxazol-3-yl]-3-oxohexahydro-1H-pyrrolo[1,2-c]imidazol-6-yl}-1-methoxymethanesulfonamide]	97%
CCS(=O)(=O)N[C@H]1C[C@H]2CN(c3noc4cccc(-c5c(F)ccc(F)c5F)c34)C(=O)N2C1 [Example 21, N-{(6S,7aS)-3-oxo-2-[4-(2,3,6-trifluorophenyl)-1,2-benzoxazol-3-yl]hexahydro-1H-pyrrolo[1,2-c]imidazol-6-yl}ethanesulfonamide]	81%
CS(=O)(=O)N[C@@H]1CN2C(=O)N(c3noc4cc(Cl)cc(-c5c(F)cc(F)cc5F)c34)C[C@@H]2C1(F)F [Example 25, N-{(6R,7aR)-2-[6-chloro-4-(2,4,6-trifluorophenyl)-1,2-benzoxazol-3-yl]-7,7-difluoro-3-oxohexahydro-1H-pyrrolo[1,2-c]imidazol-6-yl}methanesulfonamide]	96%
CN(C)S(=O)(=O)N[C@H]1C[C@H]2CN(c3noc4cccc(-c5c(F)cccc5F)c34)C(=O)N2C1 [Example 28, N′-{(6S,7aS)-2-[4-(2,6-difluorophenyl)-1,2-benzoxazol-3-yl]-3-oxohexahydro-1H-pyrrolo[1,2-c]imidazol-6-yl}-N,N-dimethylsulfuric diamide]	106%
O=C1N(c2noc3cccc(-c4c(F)cccc4F)c23)C[C@@H]2C[C@H](NS(=O)(=O)CF)CN12 [Example 29, N-{(6S,7aS)-2-[4-(2,6-difluorophenyl)-1,2-benzoxazol-3-yl]-3-oxohexahydro-1H-pyrrolo[1,2-c]imidazol-6-yl}-1-fluoromethanesulfonamide]	101%
CCS(=O)(=O)N[C@H]1C[C@H]2CN(c3noc4cccc(-c5c(F)cccc5C(F)(F)F)c34)C(=O)N2C1 [Example 32, N-[ (6S,7aS)-2-{4-[2-fluoro-6-(trifluoromethyl)phenyl]-1,2-benzoxazol-3-yl}-3-oxohexahydro-1H-pyrrolo[1,2-c]imidazol-6-yl] ethanesulfonamide]	94%
CCS(=O)(=O)N[C@@H]1CN2C(=O)N(c3noc4cccc(-c5c(F)cccc5F)c34)C[C@@H]2C1(F)F [Example 33, N-{(6R,7aR)-2-[4-(2,6-Difluorophenyl)-1,2-benzoxazol-3-yl]-7,7-difluoro-3-oxohexahydro-1H-pyrrolo[1,2-c]imidazol-6-yl}ethanesulfonamide]	108%
CS(=O)(=O)N[C@@H]1CN2C(=O)N(c3noc4cccc(-c5c(F)cccc5F)c34)C[C@@H]2C1(F)F [Example 34, N-{(6R,7aR)-2-[4-(2,6-Difluorophenyl)-1,2-benzoxazol-3-yl]-7,7-difluoro-3-oxohexahydro-1H-pyrrolo[1,2-c]imidazol-6-yl}methanesulfonamide]	106%
CS(=O)(=O)N[C@@H]1CN2C(=O)N(c3noc4ccc(F)c(-c5c(F)cccc5F)c34)C[C@@H]2C1(F)F [Example 38, N-{(6R,7aR)-2-[4-(2,6-difluorophenyl)-5-fluoro-1,2-benzoxazol-3-yl]-7,7-difluoro-3-oxohexahydro-1H-pyrrolo[1,2-c]imidazol-6-yl}methanesulfonamide]	111%
CCS(=O)(=O)N[C@@H]1Cn2c(cn(-c3noc4cc(Cl)cc(-c5c(F)cc(F)cc5F)c34)c2=O)C1(F)F [Example 39, N-{(6R)-2-[6-chloro-4-(2,4,6-trifluorophenyl)-1,2-benzoxazol-3-yl]-7,7-difluoro-3-oxo-2,5,6,7-tetrahydro-3H-pyrrolo[1,2-c]imidazol-6-yl}ethanesulfonamide]	106%

Now from value to compound:

OX2R agonist activity (3 uM, %)	SMILES
103%	CCS(=O)(=O)NC1CN2C(=O)N(c3noc4cccc(-c5c(F)cccc5F)c34)C[C@@H]2C1C (stereo in doubt) [Example 158, N-{(6R*,7R*,7aS)-2-[4-(2,6-difluorophenyl)-1,2-benzoxazol-3-yl]-7-methyl-3-oxohexahydro-1H-pyrrolo[1,2-c]imidazol-6-yl}ethanesulfonamide]
101%	CCS(=O)(=O)NC1CN2C(=O)N(c3noc4cccc(-c5c(F)cccc5F)c34)C[C@@H]2C1C (stereo in doubt) [Example 183, N-{(6R*,7S*,7aS)-2-[4-(2,6-difluorophenyl)-1,2-benzoxazol-3-yl]-7-methyl-3-oxohexahydro-1H-pyrrolo[1,2-c]imidazol-6-yl}ethanesulfonamide]
108%	CCS(=O)(=O)N[C@H]1Cc2cn(-c3cnn4cccc(-c5c(F)cccc5F)c34)c(=O)n2C1 [Example 2, N-{(6S)-2-[4-(2,6-difluorophenyl)pyrazolo[1,5-a]pyridin-3-yl]-3-oxo-2,5,6,7-tetrahydro-3H-pyrrolo[1,2-c]imidazol-6-yl}ethanesulfonamide]
105%	CCS(=O)(=O)N[C@H]1Cc2c(C)n(-c3noc4cccc(-c5c(F)cccc5F)c34)c(=O)n2C1 [Example 12, N-{(6S)-2-[4-(2,6-difluorophenyl)-1,2-benzoxazol-3-yl]-1-methyl-3-oxo-2,5,6,7-tetrahydro-3H-pyrrolo[1,2-c]imidazol-6-yl}ethanesulfonamide]
97%	CS(=O)(=O)N[C@H]1Cc2cn(-c3noc4cccc(-c5c(F)cccc5F)c34)c(=O)n2C1 [Example 26, N-{(6S)-2-[4-(2,6-difluorophenyl)-1,2-benzoxazol-3-yl]-3-oxo-2,5,6,7-tetrahydro-3H-pyrrolo[1,2-c]imidazol-6-yl}methanesulfonamide]
94%	CCS(=O)(=O)N[C@H]1C[C@H]2CN(c3noc4c(C)ccc(-c5c(F)cccc5F)c34)C(=O)N2C1 [Example 30, N-{(6S,7aS)-2-[4-(2,6-difluorophenyl)-7-methyl-1,2-benzoxazol-3-yl]-3-oxohexahydro-1H-pyrrolo[1,2-c]imidazol-6-yl}ethanesulfonamide]
101%	CCS(=O)(=O)N[C@H]1Cc2cn(-c3cnc4cccc(-c5c(F)cccc5F)n34)c(=O)n2C1 [Example 37, N-{(6S)-2-[5-(2,6-difluorophenyl)imidazo[1,2-a]pyridin-3-yl]-3-oxo-2,5,6,7-tetrahydro-3H-pyrrolo[1,2-c]imidazol-6-yl}ethanesulfonamide]
